Entries after “also recorded” stand apart in the source; their conditions may differ. Blank lines part the entries; values can stand above or below the molecule they belong to.
What was measured:
human TREK-1 = target: T1, human TREK-1 (Homo sapiens, UniProt O95069); test: thallium flux assay (TREK1 activation normalized to BL-1249); format: cell-based; conditions: normalized to 10 μM BL-1249, CHO-K1 cells stably expressing human TREK-1, read-out: TREK1 activation RBL-1249 (%); for activation at 30 µM: concentration of Example compound 30 μM; for activation at 10 µM: concentration of Example compound 10 μM
T1 construct: expressed in transfected cells
T1 sequence (O95069 1-426): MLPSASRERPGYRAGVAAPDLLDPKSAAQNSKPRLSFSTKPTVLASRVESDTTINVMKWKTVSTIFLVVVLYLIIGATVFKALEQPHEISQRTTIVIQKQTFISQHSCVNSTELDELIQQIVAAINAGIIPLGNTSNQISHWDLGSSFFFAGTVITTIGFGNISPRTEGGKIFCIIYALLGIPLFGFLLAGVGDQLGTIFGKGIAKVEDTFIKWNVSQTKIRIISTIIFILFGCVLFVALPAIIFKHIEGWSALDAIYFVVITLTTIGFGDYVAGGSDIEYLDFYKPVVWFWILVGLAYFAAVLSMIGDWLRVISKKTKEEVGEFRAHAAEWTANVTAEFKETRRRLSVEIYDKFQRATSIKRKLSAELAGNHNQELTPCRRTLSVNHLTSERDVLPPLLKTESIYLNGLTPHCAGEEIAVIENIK
Experimental: The term “thallium flux assay” herein refers to a fluorescence-based assay used to monitor the activity of TREK channels. Thallium is a congener of potassium that readily fluxes through the pore of TREK channels. Thallium flux is measured using a commercially available, thallium-sensitive fluorescent dye called Thallos. The detail method is described below.
Method 1 (Thallium Flux Assay);
CHO-K1 cells stably expressing human TREK-1 or HEK293 cells stably expressing human TREK-2 are plated in 384-well plates, cultured overnight, loaded with Thallos dye the following day, treated with test compounds for 10 min, and then treated with thallium stimulus buffer to initiate thallium flux. The change in fluorescence at 25 seconds after thallium addition is normalized to baseline fluorescence (fluorescent intensity at 25 sec after Tl^+ addition)/(average of fluorescent intensity at pre-read).

ICR mice = test: acetic acid writhing assay; format: in vivo, mouse; conditions: for number of writhes induced by acetic acid: ICR mice, 2 h before acetic acid i.p., counted for 30 min, vs vehicle; for number of writhes induced by acetic acid (FIGURE legend): mouse, p.o., dose not stated in the legend, *p<0.05 vs vehicle
Experimental: d. Analgesic Effect in Acetic Acid Writhing Assay
ICR mice were pretreated with vehicle (0.5 w/v % methyl cellulose, p.o.) or Example 1-25 compounds (0.3, 1, 3 mg/kg, p.o.) or Example 2 compounds (1, 10, 300 mg/kg, p.o.) or indomethacin (10 mg/kg, p.o.). Compounds were suspended in 0.5 w/v % methyl cellulose and indomethacin was dissolved in 0.7% sodium bicarbonate. All drugs were administered in a volume of 10 mL/kg. Two hours after administration of the disclosed compounds and vehicle, or one hour after administration of indomethacin, the animals were injected with acetic acid (0.7% v/v in saline, 10 mL/kg, i.p.). The number of writhes (characterized by contraction of the abdominal musculature and extension of the limbs) was then counted for 30 min. Analgesic effect was evaluated by comparing the number of writhes between the rest compounds group and the vehicle group.

activation at 30 µM (human TREK-1): 20%
SMILES: Cc1cc(OC(F)(F)F)ccc1CNC(=O)c1ccc(-n2cncn2)nc1 [Example 2, N-[2-Methyl-4-(trifluoromethoxy)benzyl]-6-(1H-1,2,4-triazol-1-yl)nicotinamide]
number of writhes induced by acetic acid (ICR mice; 300 mg/kg p.o., 300 mg/kg): significantly decreased the number of writhes; also recorded: the same degree as indomethacin 10 mg/kg | number of writhes induced by acetic acid (FIGURE legend) (ICR mice): inhibit the number of writhes induced by acetic acid

activation at 10 µM (human TREK-1): 82%
SMILES: O=C(NCc1ccc(OC(F)(F)F)cc1F)c1ccc2ncnn2c1 [Example 1-25, N-[2-fluoro-4-(trifluoromethoxy)benzyl][1,2,4]triazolo[1,5-a]pyridine-6-carboxamide]
number of writhes induced by acetic acid (ICR mice; 3 mg/kg p.o., 3 mg/kg): significantly decreased the number of writhes; also recorded: the same degree as indomethacin 10 mg/kg | number of writhes induced by acetic acid (FIGURE legend) (ICR mice): inhibit the number of writhes induced by acetic acid

activation at 30 µM (human TREK-1): 24%
SMILES: O=C(NCc1ccc(C(F)(F)F)cn1)c1ccc(-n2cccn2)cc1 [Example 2-37, 4-(1H-pyrazol-1-yl)-N-{[5-(trifluoromethyl)-2-pyridinyl]methyl}benzamide]

activation at 10 µM (human TREK-1): 19%
SMILES: O=C(NCc1ccc(OC(F)(F)F)cc1)c1ccc2[nH]ncc2c1 [Example 1-71, N-[4-(trifluoromethoxy)benzyl]-1H-indazole-5-carboxamide]

activation at 10 µM (human TREK-1): 65%
SMILES: COc1cc(OC(F)(F)F)ccc1CNC(=O)c1cc2ncccn2n1 [Example 1-51, N-[2-methoxy-4-(trifluoromethoxy)benzyl]pyrazolo[1,5-a]pyrimidine-2-carboxamide]

activation at 10 µM (human TREK-1): 63%
SMILES: COc1cc(OC(F)(F)F)ccc1CNC(=O)c1ccc(-n2cccn2)cc1 [Example 2-41, N-[2-methoxy-4-(trifluoromethoxy)benzyl]-4-(1H-pyrazol-1-yl)benzamide]

activation at 10 µM (human TREK-1): 66%
SMILES: O=C(NCc1ccc(OC(F)(F)F)cc1F)c1cc2ncccn2n1 [Example 1-50, N-[2-fluoro-4-(trifluoromethoxy)benzyl]pyrazolo[1,5-a]pyrimidine-2-carboxamide]

From patent US11851428B2, “Activator of TREK (TWIK RElated K+channels) channels” (ONO PHARMACEUTICAL CO., LTD., priority 2016, dated 2023)
